{
  "source": "paper PMC7537338",
  "about": "“CD47/SIRPα blocking peptide identification and synergistic effect with irradiation for cancer immunotherapy” (Journal for Immunotherapy of Cancer, 2020)",
  "key": {"[1]": {"biological_target": "T1, human CD47/SIRPα interaction (Homo sapiens, UniProt Q08722)", "T1 construct": "Human or mouse CD47-IgV-Domain-hIg fusion proteins (20 nM, Sino Biological, China); purchased Sino Biological (hIg fusion); ACROBiosystems (biotinylated human CD47); host or cells: SIRPα partner: CHO cells stably expressing human SIRPα", "T1 sequence (Q08722 19-127 limits assumed)": "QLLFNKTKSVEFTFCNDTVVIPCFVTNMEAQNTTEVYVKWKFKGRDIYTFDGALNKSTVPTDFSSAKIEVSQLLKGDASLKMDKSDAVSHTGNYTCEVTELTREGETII", "experiment": "Blocking assay, human CD47 protein binding to CHO cells expressing human SIRPα (flow cytometry)", "details": "blockade of peptides to hCD47 relative to parent pep-20, Table S4", "description": "Human or mouse CD47-IgV-Domain-hIg fusion proteins (20 nM, Sino Biological, China), or biotinylated human CD47 protein (20 nM, ACROBiosystems, USA) was incubated with titrating concentrations of peptides or anti-human CD47 antibody (B6H12) in phosphate-buffered saline (PBS, pH 7.4) for 1 hour at 4°C. The mixture was incubated with human or mice SIRPα overexpressed Chinese hamster ovary cells for 30 min at 4°C, washed to remove unbound mixtures and phycoerythrin (PE)-conjugated goat anti-human IgG or PE-conjugated streptavidin was incubated (eBioscience, USA). Cells were then analyzed by flow cytometry (BD Biosciences, USA). The IC50 was determined from sigmoidal dose response curves illustrated by GraphPad Prism."}, "[2]": {"system": "MC38 tumor-bearing C57BL/6 mice", "experiment": "Hematological toxicity in MC38 tumor-bearing mice", "assay_type": "in vivo", "details": "2 mg/kg i.p. every day two weeks versus miap301 400 μg every 3 days x5, day 14, n = 4 - 5", "description": "anti-CD47. (A, B) MC38 tumor-bearing C57BL/6 mice were treated i.p. with 2 mg/kg pep-20-D12 every day for two weeks or 400μg anti -mouse CD47 antibody\n(miap301) every 3 days for a total of 5 times, and normal saline or ratIg as the negative controls, respectively (n = 4 - 5). On day 14, hematologic parameters of red blood cell (A), hemoglobin (B) level were analyzed. Data are represented as means ± SEM. Statistical significance was determined by unpaired Student's t test.\n111 Mouse toxicity assays\n112 Normal C57BL/6 mice were injected s.c. with 2 mg/kg peptides or normal 113 saline as the negative control daily from day 1 to 14 (n = 5). On days 0 and 14, 114 mice blood samples were collected via retro-orbital bleed. For MC38 115 tumor-bearing mice, blood samples were collected after treatment (n = 4 - 5).\n116 Hematologic and blood biochemical parameters were analyzed by ADVIA 117 2120i Hematology Analyzer (Siemens, Germany). […]\n124 The 3D structure of pep-20 was predicted by pep-FOLD3. […] The ΔdAffinity 126 between pep-20 and pep-20-derived alanine substituation analogue peptides 127 were calculated by Ala-scanning of molecular operating environment (MOE, 128 Chemical Computing Group, CA), which was used to display the structure of 129 pep-20 and docking model of pep-20 and CD47 including interaction of […]"}, "[3]": {"experiment": "Peptide stability assay in 10% human serum", "assay_type": "in vitro ADME", "details": "200 μM peptide in normal saline, fresh human serum 10% vol/vol, 37°C, sampled 0 min to 48 h, RP-HPLC, triplicates", "description": "proteolysis compared with parent pep-20. (A, B) Dose response curves of pep-20-D12 interfering CD47-Sirpα interaction. […]\npeptide and serum were analyzed by RP-HPLC. Error bars indicate standard deviation of triplicates. Data are represented as means ± SEM. (E, F) The pharmacokinetic analysis […]\nof pep-20 and pep- 20-D12.\nData are represented as means ± SEM. […]\nhuman serum (10%, vol/vol).\n8h, 24h, 36h and 48h. The acetonitrile-glacial acetic acid mixture was utilized 136 to terminate the enzymatic reaction. After centrifuged at 12000 rpm for 10 min, 137 […]\nPharmacokinetic assays in vivo 140 […]\nintravenous dose of 40 mg/kg of peptides. Blood samples were collected an d 142 […]\nrpm for 10 min. The supernatant was analyzed by RP-HPLC. The 145 pharmacokinetic parameters of peptides were determined by 146 noncompartmental analysis (NCA) using Phoenix WinNonlin software program 147 5.2.1 (Certara, Princeton, USA). The maximum plasma concentration Cmax and 148 elimination half-life (T1/2) were calculated. 149"}, "in vivo": {"experiment": "in vivo", "details": "C57BL/6, mouse, iv, 40 mg/kg", "procedure": "(§1) of pep-20 and pep- 20-D12. The plasma concentration-time curve of pep-20 (E) and\n(§2) C57BL/6 mice with weight of 18-20 g were administrated with a single 141\n(§3) centrifuged at 8000 rpm for 10 min at the indicated intervals. Plasma wa s 143\n(§4) further mixed with 10% HClO4 at a ratio of 2∶1 (v/v) and centrifuged at 16,000 144"}, "[4]": {"experiment": "Pharmacokinetic assay in vivo", "details": "C57BL/6, mouse, plasma, iv, 40 mg/kg", "procedure": "as §1, §2, §3, §4"}},
  "note": "Where a SMILES comes first, the peptide text is derived from it. [ ]: non-standard residue; d: D form.",
  "data": [
    {"compound": "C[C@H](NC(=O)[C@@H](CO)NC(=O)[C@@H](Cc1c[nH]c2ccccc12)NC(=O)[C@@H](C)N)C(=O)N[C@H](C(=O)N[C@@H](Cc1c[nH]c2ccccc12)C(=O)N[C@@H](CO)C(=O)N[C@@H](CC(N)=O)C(=O)N[C@@H](Cc1ccc(O)cc1)C(=O)N[C@H](Cc1c[nH]c2ccccc12)C(=O)N[C@H](CCCNC(=N)N)C(=O)N[C@H](Cc1c[nH]cn1)C(=O)O)[C@@H](C)O", "note": "[pep-20-D12] (H-[dA][dW][dS]ATWSNY[dW][dR][dH]-OH)", "values": [
      {"measurement": "Blocking rate relative to pep-20 (%)", "setting": "[1]", "value": 105, "unit": "%"},
      {"measurement": "Blood toxicity (red blood cell, hemoglobin) compared with anti-CD47 antibody", "setting": "[2]", "value": "less blood toxicity"},
      {"measurement": "Time for which the initial concentration was retained in human serum", "setting": "[3]", "value": "up to 36 hours"},
      {"measurement": "half-life", "setting": "in vivo", "value": 6.36, "unit": "h"},
      {"measurement": "Cmax", "setting": "[4]", "value": 54.5, "unit": "µg/mL"}
    ]}
  ]
}
